The test system of the assay is rabbit atrial tissue. Put plainly: Frequency-dependent effects on action potentials of rabbit atrial tissue (APD90). The format is cell-based. The conditions noted are these: 1 μM, of control APD90, n=5. As for the experimental part:
Action potentials in rabbit atrial tissue were recorded according to the method described in thesis by Kwak, et al. (A newly synthesized benzopyran derivatives, activates the cardiac ATP-sensitive K^+ channel. J Pharmacol Exp Ther 1995, 275: 807-812).
Male New Zealand white rabbits weighing about 2 kg were stunned with a blow on the head and hearts were rapidly excised and transferred to a dissection bath filled with Tyrode's solution saturated with 97% O2 and 3% CO2 gas mixture and each dissected tissue was mounted horizontally in a narrow channel of a tissue chamber and continuously superfused with the Tyrode's solution at 37° C. The action potentials were elicited by stimulating the cardiac cells with square pulses (1˜5 Hz, 1-ms duration, 20-30% above threshold voltage) by a stimulator. […] Tracings on the oscilloscope screen were photographed on a 35-mm film and also recorded on a physiograph (RS 3400, Gould, Cleveland, Ohio). APD90 was used for the comparison of action potential durations. APD90 represents the action potential duration at 90% repolarization, relative to the action potential duration at maximum 100% depolarization. Images on the oscilloscope screen were captured on Polaroid camera.
We tested whether the effect of chelidonine on action potentials of rabbit atrial myocytes are frequency-dependent or not.
The relative action potential durations were normalized to the APD90 value in the absence of chelidonine at each frequency. At the stimulus frequency of 1, 2, 3, 4 and 5 Hz, 1 μM chelidonine increased APD90 by 13.0±8.1% (n=5), 14.5±7.9% (n=5), 16.5±2.2% (n=5) 28.2±0.4% (n=5) or 33.0±0.3 1% (n=5) of the control APD90 in the absence of chelidonine at each frequency, respectively.

Structures are written as SMILES.

The source of these data is patent US6887882B2, “Pharmaceutical compositions comprising chelidonine or derivatives thereof” (priority 2002, dated 2005).

As for `CN1Cc2c(ccc3c2OCO3)[C@@H]2[C@H]1c1cc3c(cc1C[C@@H]2O)OCO3` [Compound 1, [5bR-(5bα,6β,12bα)]-5b,6,7,12b,13, 14-hexahydro-13-methyl[1,3]benzodioxolo[5,6c]-1,3-dioxolo[4,5-i]phenanthridin-6-ol], the “increase of APD90” value (stimulus frequency 1 Hz) was determined as 13.0±8.1%, the “increase of APD90” value (stimulus frequency 2 Hz) is given as 14.5±7.9%, the “increase of APD90” value (stimulus frequency 3 Hz) is reported as 16.5±2.2% and the “increase of APD90” value (stimulus frequency 4 Hz) came to 28.2±0.4%.
